From ChEMBL document CHEMBL1671704, “Defining the role of mutations in Plasmodium vivax dihydrofolate reductase-thymidylate synthase gene using an episomal Plasmodium falciparum transfection system” (Antimicrob Agents Chemother, 2010) come the findings set out here.

Each structure is given as a SMILES string.

Assay [1] has as its system Plasmodium falciparum. Kind of assay: Antimalarial activity against Plasmodium falciparum D6 infected in RBCs assessed as inhibition of [3H]hypoxanthine incorporation after 72 hrs. The assay is classed as functional, organism-based.
The test system of assay [2] is Plasmodium falciparum. The assay is described as follows: Antimalarial activity against Plasmodium falciparum TM91c235 harboring DHFR F57L, S58R, T61M, S117T mutant infected in RBCs assessed as inhibition of [3H]hypoxanthine incorporation after 72 hrs. It is filed as functional, organism-based.
Assay [3] relates to Plasmodium falciparum. The assay is described as follows: Antimalarial activity against Plasmodium falciparum D6 harboring Plasmodium vivax wild type DHFR infected in RBCs assessed as inhibition of [3H]hypoxanthine incorporation after 72 hrs. The assay is classed as functional, organism-based.
The subject of assay [4] is Plasmodium falciparum. The assay is described as follows: Antimalarial activity against Plasmodium falciparum D6 harboring Plasmodium vivax DHFR S117N mutant infected in RBCs assessed as inhibition of [3H]hypoxanthine incorporation after 72 hrs. It is filed as functional, organism-based.
Assay [5] deals with Plasmodium falciparum. Kind of assay: Antimalarial activity against Plasmodium falciparum D6 harboring Plasmodium vivax DHFR F57L and S117N mutant infected in RBCs assessed as inhibition of [3H]hypoxanthine incorporation after 72 hrs. It is filed as functional, organism-based.
In assay [6] the test system is Plasmodium falciparum. The assay is described as follows: Antimalarial activity against Plasmodium falciparum D6 harboring Plasmodium vivax DHFR S58R and S117N mutant infected in RBCs assessed as inhibition of [3H]hypoxanthine incorporation after 72 hrs. It is filed as functional, organism-based.
For assay [7], the system named is Plasmodium falciparum. The assay is described as follows: Antimalarial activity against Plasmodium falciparum D6 harboring Plasmodium vivax DHFR S58R, T61M and S117N mutant infected in RBCs assessed as inhibition of [3H]hypoxanthine incorporation after 72 hrs. The assay is classed as functional, organism-based.
Assay [8] deals with Plasmodium falciparum. The assay is described as follows: Antimalarial activity against Plasmodium falciparum D6 harboring Plasmodium vivax DHFR F57L, S58R, T61M, S117T mutant infected in RBCs assessed as inhibition of [3H]hypoxanthine incorporation after 72 hrs. It is filed as functional, organism-based.
Assay [9] deals with Plasmodium falciparum. Kind of assay: Ratio of IC50 for Plasmodium falciparum D6 harboring Plasmodium vivax DHFR S117N mutant to IC50 for Plasmodium falciparum D6 harboring Plasmodium vivax wild type DHFR. The assay is classed as functional.
Assay [10] deals with Plasmodium falciparum. Kind of assay: Ratio of IC50 for Plasmodium falciparum D6 harboring Plasmodium vivax DHFR F57L and S117N mutant to IC50 for Plasmodium falciparum D6 harboring Plasmodium vivax wild type DHFR. The assay is classed as functional.
In assay [11] the test system is Plasmodium falciparum. The assay is described as follows: Ratio of IC50 for Plasmodium falciparum D6 harboring Plasmodium vivax DHFR S58R and S117N mutant to IC50 for Plasmodium falciparum D6 harboring Plasmodium vivax wild type DHFR. It is filed as functional.
The subject of assay [12] is Plasmodium falciparum. The assay is described as follows: Ratio of IC50 for Plasmodium falciparum D6 harboring Plasmodium vivax DHFR S58R, T61M and S117N mutant to IC50 for Plasmodium falciparum D6 harboring Plasmodium vivax wild type DHFR. The assay is classed as functional.
Assay [13] relates to Plasmodium falciparum. Kind of assay: Ratio of IC50 for Plasmodium falciparum D6 harboring Plasmodium vivax DHFR F57L, S58R, T61M, S117T mutant to IC50 for Plasmodium falciparum D6 harboring Plasmodium vivax wild type DHFR. It is filed as functional.
The test system of assay [14] is Plasmodium falciparum. Kind of assay: Ratio of IC50 for Plasmodium falciparum TM91c235 harboring DHFR F57L, S58R, T61M, S117T mutant to IC50 for Plasmodium falciparum D6. It is filed as functional.

For `CC1(C)N=C(N)N=C(N)N1OCCCOc1cc(Cl)c(Cl)cc1Cl`, the half-inhibitory concentration (IC50) with Plasmodium falciparum [1] was 166 pM; in the assay on Plasmodium falciparum [2], 339 pM; in the assay on Plasmodium falciparum [3], 67 pM; with Plasmodium falciparum [4], 427 pM; in the assay with Plasmodium falciparum [5], 1500 pM; in the assay on Plasmodium falciparum [6] it was 690 pM. Also, the concentration for half-maximal inhibition (IC50) in the assay on Plasmodium falciparum [7] was determined as 105 pM; in the assay on Plasmodium falciparum [8], 2930 pM. Moreover, the “Ratio IC50” value stood at 6 with Plasmodium falciparum [9]; 22 in the assay with Plasmodium falciparum [10]; 10 with Plasmodium falciparum [11]; 2 with Plasmodium falciparum [12]; 44 with Plasmodium falciparum [13]; 5 in the assay on Plasmodium falciparum [14].
Regarding `CC1(C)N=C(N)N=C(N)N1OCc1ccc(Cl)c(Cl)c1` [CLOCIGUANIL], the IC50 with Plasmodium falciparum [1] turned out to be 21 pM; in the assay on Plasmodium falciparum [2] it was 3160 pM; in the assay with Plasmodium falciparum [3], 22 pM; in the assay with Plasmodium falciparum [4], 67 pM; with Plasmodium falciparum [5], 219 pM; with Plasmodium falciparum [6] it was 582 pM. Further, the figures for the IC50 in the assay with Plasmodium falciparum [7] and in the assay with Plasmodium falciparum [8] were 73 pM and 56400 pM, respectively. For the same compound, the “Ratio IC50” value was determined as 6 in the assay with Plasmodium falciparum [9]; 10 in the assay on Plasmodium falciparum [10]; 26 with Plasmodium falciparum [11]; 3 in the assay with Plasmodium falciparum [12]; 2565 with Plasmodium falciparum [13]; 144 with Plasmodium falciparum [14].
Regarding `CC1(C)N=C(N)N=C(N)N1c1ccc(Cl)cc1` [CYCLOGUANIL], the IC50 in the assay on Plasmodium falciparum [1] was 118 pM; in the assay on Plasmodium falciparum [2], 116000 pM; with Plasmodium falciparum [3], 429 pM; in the assay on Plasmodium falciparum [4], 810 pM; in the assay on Plasmodium falciparum [5], 2770 pM; with Plasmodium falciparum [6], 1700 pM. Moreover, the results for the IC50 in the assay with Plasmodium falciparum [7] and in the assay on Plasmodium falciparum [8] were 587 pM and 320000 pM, respectively. The “Ratio IC50” value came to 2 in the assay on Plasmodium falciparum [9]; 6 in the assay with Plasmodium falciparum [10]; 4 in the assay on Plasmodium falciparum [11]; 1 with Plasmodium falciparum [12]; 746 in the assay with Plasmodium falciparum [13]; 50 in the assay on Plasmodium falciparum [14].
On to `CCc1nc(N)nc(N)c1-c1ccc(Cl)cc1` [PYRIMETHAMINE], for which the IC50 was 28 pM in the assay on Plasmodium falciparum [1]; 143000 pM in the assay with Plasmodium falciparum [2]; 55 pM in the assay with Plasmodium falciparum [3]; 3660 pM with Plasmodium falciparum [5]; 6260 pM with Plasmodium falciparum [6]; 2810 pM with Plasmodium falciparum [7]. For the same compound, the IC50 with Plasmodium falciparum [8] was 467000 pM.
